Like-named read-outs stand apart in the source and are kept apart here.
Columns and labels:
[1] = tested on: Citrobacter freundii E8; test: MIC, DST agar + 10% horse blood; type: cell-based
Protocol: (§1) The minimum inhibitory concentrations (MIC) of certain compounds of the invention were determined against a range of organisms.
(§2) of 0.001 ml of a 10^-2 dilution for Grampositive bacteria or a
(§3) 10^-4 dilution for Gramnegative bacteria).

[2] = tested on: E. coli JT39; test: MIC, DST agar + 10% horse blood; type: cell-based; settings: Escherichia coli
Protocol: as §1, §2, §3

[3] = tested on: Staph. aureus Russell; test: MIC, DST agar + 10% horse blood; type: cell-based; settings: Staphylococcus aureus
Protocol: as §1, §2, §3

[4] = tested on: E. coli 0111; test: MIC, DST agar + 10% horse blood; type: cell-based; settings: Escherichia coli
Protocol: as §1, §2, §3

[5] = tested on: Bacillus subtilis A; test: MIC, DST agar + 10% horse blood; type: cell-based
Protocol: as §1, §2, §3

[6] = tested on: Salmonella typhimurium CT10; test: MIC, DST agar + 10% horse blood; type: cell-based; settings: Salmonella enterica
Protocol: as §1, §2, §3

[7] = tested on: Klebsiella aerogenes A; test: MIC, DST agar + 10% horse blood; type: cell-based
Protocol: as §1, §2, §3

[8] = tested on: Streptococcus pyogenes CN10; test: MIC, DST agar + 10% horse blood; type: cell-based
Protocol: as §1, §2, §3

[9] = tested on: Shigella sonnei MB11967; test: MIC, DST agar + 10% horse blood; type: cell-based
Protocol: as §1, §2, §3

[10] = tested on: Staph. aureus Oxford; test: MIC, DST agar + 10% horse blood; type: cell-based; settings: Staphylococcus aureus
Protocol: as §1, §2, §3

[11] = tested on: Proteus mirabilis C977; test: MIC, DST agar + 10% horse blood; type: cell-based
Protocol: as §1, §2, §3

[12] = target: T1, β-Lactamase from Enterobacter cloacae P99 (Enterobacter cloacae, UniProt P05364); test: β-Lactamase inhibition, chromogenic cephalosporin substrate; type: biochemical; settings: 5 min preincubation, pH 7.3, 37° C., read-out: I50 (converted)
T1 construct: β-Lactamase from; endogenous in cells; host or cells: Enterobacter cloacae P99
T1 sequence (P05364 21-381): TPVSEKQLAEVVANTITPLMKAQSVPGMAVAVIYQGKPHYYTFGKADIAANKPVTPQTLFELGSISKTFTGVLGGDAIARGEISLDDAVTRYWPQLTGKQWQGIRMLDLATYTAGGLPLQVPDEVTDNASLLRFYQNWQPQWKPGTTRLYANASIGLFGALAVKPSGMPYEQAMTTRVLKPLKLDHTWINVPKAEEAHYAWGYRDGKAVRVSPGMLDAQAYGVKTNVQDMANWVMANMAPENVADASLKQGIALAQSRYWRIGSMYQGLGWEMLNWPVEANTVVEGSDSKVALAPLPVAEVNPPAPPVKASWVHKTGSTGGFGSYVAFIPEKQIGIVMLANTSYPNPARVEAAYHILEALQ
Protocol: (§4) I50 values for certain compounds of the invention against various β-lactamases were determined as follows:
(§5) Enzyme (0.2 ml) and inhibitor solution (10 μl) were incubated at pH 7.3, 37° C. for 5 minutes. Substrate (0.2 ml), which was the chromogenic cephalosporin described by O'Callaghan, Morris, Kirby and Shingler, Antimicrobial Agents and Chemotherapy, vol. 1, no. 4, 283-288 (1972), was added to give a final concentration of 250 μg/ml. After a further five minutes (37° C. at pH 7.3) the reaction was diluted with 1.6 ml of water and absorbance at 482 nm recorded instantly. The enzyme level was sufficient to hydrolyse 75% of the substrate in 5 minutes. Levels of inhibition were measured against a control reaction with no added inhibitor (10 μl buffer). I50 values quoted are the concentrations required to give 50% inhibition of substrate hydrolysis under the conditions described and are the concentrations of inhibitor present with the enzyme prior to the addition of the substrate.

[13] = target: T2, β-Lactamase from Staphylococcus aureus Russell (Staphylococcus aureus, UniProt P00807); test: as above; type: biochemical; settings: 5 min preincubation, pH 7.3, 37° C., read-out: I50 (converted)
T2 construct: β-Lactamase from; endogenous in cells; host or cells: Staphylococcus aureus Russell
T2 sequence (P00807 25-281): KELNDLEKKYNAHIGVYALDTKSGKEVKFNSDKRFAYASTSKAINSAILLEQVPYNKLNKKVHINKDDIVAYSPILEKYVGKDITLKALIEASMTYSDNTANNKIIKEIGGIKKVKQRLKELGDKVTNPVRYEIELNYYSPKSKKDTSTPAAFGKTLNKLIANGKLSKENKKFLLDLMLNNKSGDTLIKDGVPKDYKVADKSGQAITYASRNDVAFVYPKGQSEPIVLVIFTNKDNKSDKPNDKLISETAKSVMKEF
Protocol: as §4, §5

[14] = target: β-Lactamase from Klebsiella aerogenes E70; test: as above; type: biochemical; settings: 5 min preincubation, pH 7.3, 37° C.
Protocol: as §4
(§6) Enzyme (0.2 ml) and inhibitor solution (10 μl) were incubated at pH 7.3, 37° C. for 5 minutes. Substrate (0.2 ml), which was the chromogenic cephalosporin described by O'Callaghan, Morris, Kirby and Shingler, Antimicrobial Agents and Chemotherapy, vol. 1, no. […] After a further five minutes (37° C. at pH 7.3) the reaction was diluted with 1.6 ml of water and absorbance at 482 nm recorded instantly. […] Levels of inhibition were measured against a control reaction with no added inhibitor (10 μl buffer).

[15] = target: T3, β-Lactamase from E. coli JT4 (Escherichia coli, UniProt P62593); test: as above; type: biochemical; settings: 5 min preincubation, pH 7.3, 37° C., read-out: I50 (converted)
T3 construct: β-Lactamase from; endogenous in cells; host or cells: E. coli JT4
T3 sequence (P62593 24-286 limits assumed): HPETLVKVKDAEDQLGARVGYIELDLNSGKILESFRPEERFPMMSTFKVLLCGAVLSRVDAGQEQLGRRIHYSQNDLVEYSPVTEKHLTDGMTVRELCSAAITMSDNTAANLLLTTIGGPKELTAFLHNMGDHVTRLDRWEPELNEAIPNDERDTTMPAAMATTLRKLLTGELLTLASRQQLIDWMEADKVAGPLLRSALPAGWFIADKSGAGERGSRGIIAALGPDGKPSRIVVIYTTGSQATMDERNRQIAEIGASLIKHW
Protocol: as §4, §6

[16] = Citrobacter freundii E8, inoculum 0.001 ml of 10^-4 dilution, read-out: MIC
[17] = E. coli JT39, inoculum 0.001 ml of 10^-4 dilution, read-out: MIC
[18] = Staph. aureus Russell, inoculum 0.001 ml of 10^-2 dilution, read-out: MIC
[19] = E. coli 0111, inoculum 0.001 ml of 10^-4 dilution, read-out: MIC
[20] = Salmonella typhimurium CT10, inoculum 0.001 ml of 10^-4 dilution, read-out: MIC
[21] = Klebsiella aerogenes A, inoculum 0.001 ml of 10^-4 dilution, read-out: MIC
[22] = Streptococcus pyogenes CN10, inoculum 0.001 ml of 10^-2 dilution, read-out: MIC
[23] = Shigella sonnei MB11967, inoculum 0.001 ml of 10^-4 dilution, read-out: MIC
[24] = Staph. aureus Oxford, inoculum 0.001 ml of 10^-2 dilution, read-out: MIC
[25] = Proteus mirabilis C977, inoculum 0.001 ml of 10^-4 dilution, read-out: MIC

| SMILES | MIC [1, 16] [µg/mL] | MIC [2, 17] [µg/mL] | MIC [3, 18] [µg/mL] | MIC [4, 19] [µg/mL] | MIC ([5]; Bacillus subtilis) [µg/mL] | MIC [6, 20] [µg/mL] | MIC [7, 21] [µg/mL] | MIC [8, 22] [µg/mL] | MIC [9, 23] [µg/mL] | MIC [10, 24] [µg/mL] | MIC [11, 25] [µg/mL] | MIC ([1]; Citrobacter freundii, E8) [µg/mL] | MIC [3] [µg/mL] | MIC ([6]; TYPHIMURIUM) [µg/mL] | MIC ([7]; Klebsiella aerogenes) [µg/mL] | MIC ([8]; Streptococcus pyogenes, CN10) [µg/mL] | MIC [10] [µg/mL] | MIC ([11]; Proteus mirabilis, C977) [µg/mL] | IC50 [12] [nM] | IC50 [13] [nM] | also measured |
| --- | --- | --- | --- | --- | --- | --- | --- | --- | --- | --- | --- | --- | --- | --- | --- | --- | --- | --- | --- | --- | --- |
| CC(=O)N/C=C\SC1=C(C(=O)OCc2ccc([N+](=O)[O-])cc2)N2C(=O)[C@H]([C@H](C)O)[C@H]2C1 [Example 2, p-Nitrobenzyl (5R, 6S)-3-[(Z)-2-acetamidoethenylthio]-6-[(S)-1-hydroxyethyl]-7-oxo-1-azabicyclo[3.2.0]hept-2-ene-2-carboxylate] | 5 | > 50 | 1.2 | 2.5 | 0.5 | 2.5 | 2.5 | ≤ 0.1 | 2.5 | 0.5 | 5 |  |  |  |  |  |  |  |  |  |  |
| CC(=O)N/C=C\SC1=C(C(=O)[O-])N2C(=O)[C@H]([C@H](C)O)[C@H]2C1.[Na+] |  |  |  |  | 5 |  |  |  |  |  |  | 2.5 | 0.5 | 5 | 5 | 0.5 | 0.5 | 25 | 17.9 | ~8970 | MIC ([2]; JT39): 10 µg/mL; MIC [4]; 0111: 5 µg/mL; MIC ([9]; Shigella sonnei, MB11967): 10 µg/mL; I50 [14]: 0.1 µg/mL; IC50 [15]: 150 nM |
| CC(=O)N/C=C\SC1=C(C(=O)O)N2C(=O)[C@@H]([C@H](C)OS(=O)(=O)O)[C@H]2C1 [Example 8, Disodium (5R, 6R)-3-[(Z)-2-acetamidoethenylthio]-6-[(S)-1-sulphatoethyl]-7-oxo-1-azabcicyclo[3.2.0]hept-2-ene-2-carboxylate] | 1.2 | 2.5 | 1.2 | 1.2 |  | 1.2 | 0.5 | 0.2 | 1.2 | 1.2 | 1.2 |  |  |  |  |  |  |  | 7.65 | 637 | MIC ([5]; Bacillus subtilis A, inoculum 0.001 ml of 10^-2 dilution, read-out: MIC): 1.2 µg/mL |
| CC(=O)N/C=C\SC1=C(C(=O)[O-])N2C(=O)[C@@H]([C@H](C)O)[C@H]2C1.[Na+] [Example 5, Sodium (5R, 6R)-3-[(Z)-2-acetamidoethenylthio]-6-[(S)-1-hydroxyethyl]-7-oxo-1-azabicyclo[3.2.0]hept-2-ene-2-carboxylate] |  | 10 |  | 1 | 0.1 |  |  |  | 1 |  |  | 1 | 0.5 | 1 | 1 | ≤ 0.02 | 0.2 | 1 |  |  |  |

Reference: patent US4374144A, “β-Lactam compounds, their preparation and use” (Beecham Group Limited, priority 1978, dated 1983)
